Assay results from PubChem BioAssay AID463204 (Broad Institute, 2010).
Activity calls are given as the source filed them.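 Rule for the calls: active = AC50 no more than ten times the top concentration tested, that is within one log above it; inconclusive = flat curve fit with activity between 30% and 70%, or invalid poor fit; inactive = AC50 beyond ten times the top tested dose.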

What follows are molecules tested on S. cerevisiae Mot1-301 ts growth rescue, BacTiter-Glo ATP luminescence (assay: restored Mot1-301 yeast growth at 38.5C – whole organism, S. cerevisiae, Mot1-301 ts mutant, luminescence, dose retest, SUMOylation pathway inhibitor project, confirmation (AID 463204);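 note: growth at restrictive 38.5 degrees C of Mot1-301 OY566 strain; actives raise luminescence by restoring growth of the ts mutant at high temperature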).
In the case of `O=C(CCC(=O)OCC(=O)c1ccc(Br)cc1)Nc1cccc2cccnc12`, the AC50 is reported as > 42 µM (inactive). `O=C(CSc1nnc(CNC(=O)c2ccccc2)o1)NCc1ccco1` was tested, and the AC50 was > 42 µM (inactive). `COCCn1c(=O)[nH]c(=O)c2cc(C(=O)c3cc(Cl)ccc3O)cnc21` was tested, and the AC50 was > 42 µM (inactive). In the case of `COCC(=O)Nc1c(C(=O)Nc2ccc3c(c2)OCO3)oc2ccccc12`, the AC50 is reported as > 42 µM (inactive). With `COC(=O)c1cccc(NC(=O)c2ccc[n+]([O-])c2)c1` the AC50 was > 42 µM (inactive). `Cc1ccc(S(=O)(=O)NCCS(=O)(=O)N2CCN(c3ccc(F)cc3)CC2)cc1` was tested, and the AC50 was > 42 µM (inactive). With `CC1CCN(CCNC(=O)C2CCCN(S(=O)(=O)c3cccc4nsnc34)C2)CC1` (stereo not drawn) the AC50 was > 42 µM (inactive). For `O=C(CSc1nnc(CNC(=O)c2ccccc2F)o1)NCCc1ccccc1`, the AC50 was > 42 µM (inactive). For `C=CCSc1nnc2c(n1)[nH]c1c(C)cccc12`, the AC50 was > 42 µM (inactive). In the case of `Cc1c(NP(=O)(c2ccc(Br)cc2)c2ccc(Br)cc2)c(=O)n(-c2ccccc2)n1C`, the AC50 is reported as > 42 µM (inactive). For `O=C(Nc1cccc(O)c1)C(Cc1ccccc1)N1C(=O)c2cccc3cccc(c23)C1=O` (stereo not drawn), the AC50 was > 42 µM (inactive). In the case of `O=C(NC1CCCCC1)c1n[nH]c2c1CCCCC2`, the AC50 is reported as > 42 µM (inactive). For `O=C(CCN1CCc2ccccc2C1)Nc1ccc2c(c1)OCO2`, the AC50 was > 42 µM (inactive). In the case of `CCn1c(SCC(N)=O)nnc1-c1cc2c(C)nn(-c3ccccc3)c2s1`, the AC50 is reported as > 42 µM (inactive). With `COc1ccc(N2CCN(C(=O)Cn3nnc(-c4ccc(OC)c(OC)c4)n3)CC2)cc1` the AC50 was > 42 µM (inactive). `CN(C)c1cccc(C(=O)Nc2cc(C(F)(F)F)ccc2-n2cnc3ccccc32)c1` was tested, and the AC50 was > 42 µM (inactive). With `Cc1cccc(NC(=O)CSCC(=O)N2CCCc3ccccc32)c1` the AC50 was > 42 µM (inactive). For `Cc1ccc(SCC(=O)O/N=C(\N)c2cccc([N+](=O)[O-])c2)cc1`, the AC50 was > 42 µM (inactive). `CCOC(=O)C1CCCN(C(=O)/C=C/c2ccc(Cl)cc2)C1` (stereo not drawn) was tested, and the AC50 was > 42 µM (inactive). Molecule `Cc1ccc(S(=O)(=O)N[C@@H](Cc2ccccc2)C(=O)CCl)cc1` has an AC50 of 1.47 µM. `CCOC(=O)c1oc2ccccc2c1COC(=O)CNC(=O)c1cccc(C)c1` was tested, and the AC50 was > 42 µM (inactive). With `CCOC(=O)N1CCN(C(=O)c2ccc(OC)c(OC)c2)CC1` the AC50 was > 42 µM (inactive). For `O=C(Nc1nnc(-c2ccco2)o1)c1ccc(S(=O)(=O)N2CCCC2)cc1`, the AC50 was > 42 µM (inactive). For `CS(=O)(=O)c1ccc(Cl)c(NC(=O)c2ccc3ccccc3c2)c1`, the AC50 was > 42 µM (inactive). `CC(=O)N(C(C)=O)C1=C(C#N)C2(CCCCC2)Cc2ccccc21` was tested, and the AC50 was > 42 µM (inactive). With `CCN1CCCC1CN(Cc1cc2ccc(C)cc2[nH]c1=O)C(=S)Nc1ccccc1C(=O)OC` (stereo not drawn) the AC50 was > 42 µM (inactive). For `Cc1cccc(N(C(=O)c2ccc(CN3CCOCC3)o2)C(C(=O)NC2CCCCC2)c2ccc(F)cc2)c1` (stereo not drawn), the AC50 was > 42 µM (inactive). In the case of `COc1ccc(S(=O)(=O)Cc2ccc(C(=O)NCc3cccs3)o2)cc1`, the AC50 is reported as > 42 µM (inactive). With `CC1(OC(=O)CCc2ccccc2)C(=O)C=C2C=C(c3ccc(C#N)cc3)N(CC3CC3)C=C2C1=O` (stereo not drawn) the AC50 was > 42 µM (inactive). In the case of `CC(=O)Nc1ccccc1C(=O)C(=O)Nc1ccc(C(=O)NCC2CCCO2)cc1` (stereo not drawn), the AC50 is reported as > 42 µM (inactive). In the case of `O=C(Nc1cccnc1Cl)c1cc2ccccc2o1`, the AC50 is reported as > 42 µM (inactive). With `COc1cccc(S(=O)(=O)Nc2cccc(C(=O)N3CCOCC3)c2)c1` the AC50 was > 42 µM (inactive). `COc1ccc(NC(=O)c2ccccc2NC(=O)NC2CCCCC2)cc1` was tested, and the AC50 was > 42 µM (inactive). `CN(c1cccnc1)c1ncnc2[nH]ncc12` was tested, and the AC50 was > 42 µM (inactive). For `CN(C)c1ccc2nc3ccc(=[N+](C)C)cc-3sc2c1`, the AC50 was > 42 µM (inactive). `CC(C)c1onc(C(=O)N(C)Cc2ccccc2)c1[N+](=O)[O-]` was tested, and the AC50 was > 42 µM (inactive). In the case of `OC1CN=C2CCCc3c2n(c2ccc(Cl)cc32)C1` (stereo not drawn), the AC50 is reported as > 42 µM (inactive). In the case of `CN1C(=S)SC2CS(=O)(=O)CC21C` (stereo not drawn), the AC50 is reported as > 21 µM (inactive). For `Cc1cc(C)c(NC(=O)Cn2c([N+](=O)[O-])cnc2C)c(C)c1`, the AC50 was > 42 µM (inactive). With `O=c1cc(C(F)(F)F)c2sc(N3CCCCC3)nc2[nH]1` the AC50 was > 42 µM (inactive). In the case of `COC(=O)/C=C\C(=O)Nc1cccc([N+](=O)[O-])c1`, the AC50 is reported as 2.95 µM. In the case of `NS(=O)(=O)c1cccc(NC(=O)CSc2nnnn2-c2ccccc2)c1`, the AC50 is reported as > 42 µM (inactive). `COc1ccc(-n2nc(C(=O)NCC(=O)N3CCCC3)c3ccccc3c2=O)c(OC)c1` was tested, and the AC50 was > 42 µM (inactive). With `O=C(Nc1ccccc1N1CCN(c2ccccc2)CC1)c1cccc(F)c1` the AC50 was > 42 µM (inactive). For `Cc1ccccc1Nc1cc(=O)oc2ccccc12`, the AC50 was > 42 µM (inactive). For `COc1cc(O)oc1C=Nc1ccc(C(=O)O)cc1`, the AC50 was > 42 µM (inactive). `O=C1CN(C(=O)COC(=O)c2cccc(S(=O)(=O)NCc3ccccc3)c2)c2ccccc2N1` was tested, and the AC50 was > 42 µM (inactive). In the case of `CCOc1cc(/C=C2\NC(=O)NC2=O)ccc1OC(C)C(=O)O` (stereo not drawn), the AC50 is reported as > 42 µM (inactive). With `COCCNC(=O)C(c1ccc(C)cc1)N(C(=O)CCC(=O)Nc1ccccn1)c1cccc(C)c1` (stereo not drawn) the AC50 was > 42 µM (inactive). `CCOC(=O)C1CCN(C(=O)COc2ccc(S(=O)(=O)N3CCOCC3)cc2C)CC1` was tested, and the AC50 was > 42 µM (inactive). In the case of `CC1(C)CC(=O)C=C(OC(=O)c2ccc(Cl)cc2)C1`, the AC50 is reported as > 42 µM (inactive). For `Clc1ccc(CN(Cc2ccccc2)C(c2cccs2)c2nnnn2C2CCCC2)cc1` (stereo not drawn), the AC50 was > 42 µM (inactive). In the case of `COc1ccc(S(=O)(=O)NCC(=O)N(CC(=O)NCc2ccco2)Cc2ccccc2)cc1`, the AC50 is reported as > 42 µM (inactive). For `O=C(N/N=C/c1ccccc1)c1[nH]c2ccc(Br)cc2c1-c1ccccc1`, the AC50 was > 42 µM (inactive). With `CC1CCCCC1N=CC1=C(O)CC(C)(C)CC1=O` (stereo not drawn) the AC50 was > 42 µM (inactive). For `CCS(=O)(=O)c1nc(S(=O)(=O)c2ccc(Cl)cc2)c(N2CCc3ccccc3C2)s1`, the AC50 was > 42 µM (inactive). For `O=C(c1cc(N2C(=O)C3C4CCC(C4)C3C2=O)ccc1Cl)N1CCN(c2ccccc2)CC1` (stereo not drawn), the AC50 was > 42 µM (inactive). `C=C(C)Cn1c(N)cc(=O)nc1SCC(=O)Nc1cccc(C(F)(F)F)c1` was tested, and the AC50 was > 42 µM (inactive). With `CN(C)CCCN(Cc1ccccc1)C(=S)Nc1ccc(F)c(Cl)c1` the AC50 was > 42 µM (inactive). In the case of `O=S1(=O)C=C(Sc2nnc(-c3ccccc3)o2)c2ccccc21`, the AC50 is reported as 1.47 µM. With `CCOC(=O)N1CCN(S(=O)(=O)c2ccc(C)c(C)c2)CC1` the AC50 was > 42 µM (inactive). `CCNC(=O)C1CC(=O)N(Cc2ccc3c(c2)OCO3)C(=Nc2ccc(F)cc2)S1` (stereo not drawn) was tested, and the AC50 was > 42 µM (inactive). For `COc1ccc(NC(=O)CCCc2ccccc2)cc1OC`, the AC50 was > 42 µM (inactive). For `CC1(C)CCc2cc(CN3CCN(c4ccccn4)CC3)ccc2O1`, the AC50 was > 42 µM (inactive). `COCc1nnc(NC(=O)CC(C)C)s1` was tested, and the AC50 was > 42 µM (inactive). With `N#Cc1ccc2[nH]c(CO)c(-c3ccccc3)c2c1` the AC50 was > 42 µM (inactive). In the case of `COc1ccccc1C1NC(=O)CS1` (stereo not drawn), the AC50 is reported as > 42 µM (inactive). In the case of `COC(=O)C1(Cc2ccc(O)cc2)OC(=O)C(O)=C1c1ccc(O)cc1` (stereo not drawn), the AC50 is reported as > 42 µM (inactive). In the case of `COc1ccc(N(C(=O)c2ccco2)C(C(=O)NC2CCCCC2)c2ccccc2)cc1` (stereo not drawn), the AC50 is reported as > 42 µM (inactive). `Cc1c(NC(=O)c2ccc(N(C)S(C)(=O)=O)cc2)c(=O)n(-c2ccccc2)n1C` was tested, and the AC50 was > 42 µM (inactive). In the case of `COc1ccc(N=Cc2c(O)n(C)c(=O)[nH]c2=O)cc1`, the AC50 is reported as > 42 µM (inactive). With `O=C(N/C(=C/c1ccc2c(c1)OCO2)C(=O)N1CCOCC1)c1cccs1` the AC50 was > 42 µM (inactive). For `CCOc1c(P(=S)(N(C)C)N(C)C)c(C)nn1-c1ccccc1`, the AC50 was > 42 µM (inactive). In the case of `O=C(c1cc(F)ccc1F)C1CCCN(C(=O)c2ccc3nccnc3c2)C1` (stereo not drawn), the AC50 is reported as > 42 µM (inactive). In the case of `O=C(N/N=C/c1ccccn1)NC12CC3CC(CC(C3)C1)C2`, the AC50 is reported as > 42 µM (inactive). For `C=CCn1cc(C(C)=O)c(=O)[nH]c1=O`, the AC50 was > 42 µM (inactive). In the case of `Cc1ccc(C)n1-n1cnc2sc3c(c2c1=O)CCCCC3`, the AC50 is reported as > 42 µM (inactive). In the case of `Cn1c(-c2ccc3c(c2)OCO3)cnc1NC(=O)CCC(=O)NCCc1ccccc1`, the AC50 is reported as > 42 µM (inactive). With `COC(=O)c1ccc(N2C(=O)CC(NCc3ccccc3)C2=O)cc1` (stereo not drawn) the AC50 was > 42 µM (inactive). `COCCN(C(=O)CSc1nnc(-c2ccc(C)cc2)n1N)c1c(N)n(Cc2ccccc2)c(=O)[nH]c1=O` was tested, and the AC50 was > 42 µM (inactive). With `COc1cc(CN2CCCC(CO)(Cc3cccc(Cl)c3)C2)cc2c1OCO2` (stereo not drawn) the AC50 was > 42 µM (inactive). `CCN1CCN(CC(=O)N2N=CCC2c2ccccc2)CC1` (stereo not drawn) was tested, and the AC50 was > 42 µM (inactive). `CC(C)NC(=O)NC(=O)COC(=O)CCCSc1nc2ccccc2s1` was tested, and the AC50 was > 42 µM (inactive). In the case of `COc1ccc(NC2CC(=O)N(C(C)C)C2=O)cc1` (stereo not drawn), the AC50 is reported as > 42 µM (inactive). With `CCCc1nn2c(=O)cc(CSCC(=O)Nc3ccc(OC)cc3)nc2s1` the AC50 was > 42 µM (inactive). For `COc1ccc(OCC(=O)O/N=C(\N)Cc2ccc(Cl)cc2)cc1`, the AC50 was > 42 µM (inactive). `COc1cccc(OC)c1C(=O)Nc1ccc2c(c1)N(S(=O)(=O)c1cccs1)CCC2` was tested, and the AC50 was > 42 µM (inactive). In the case of `CC(C)CCn1c(=O)c2ccccc2c2ccccc2c1=O`, the AC50 is reported as > 42 µM (inactive). With `Cc1sc2ncn(C(C)C(=O)OC3CCCCC3)c(=O)c2c1C` (stereo not drawn) the AC50 was > 42 µM (inactive). `c1ccc2c(c1)[nH]c1c(N3CCN(C4CCCCC4)CC3)ncnc12` was tested, and the AC50 was > 42 µM (inactive). `Cc1cc(Nc2nc3c(c(=O)n(C)c(=O)n3C)n2C)n(-c2ccc(Cl)cc2)n1` was tested, and the AC50 was > 42 µM (inactive). For `Cc1nc(C)n(CC(=O)N2CCCC(C(=O)c3cccc4ccccc34)C2)n1` (stereo not drawn), the AC50 was > 42 µM (inactive). With `CC(=O)c1ccc2noc(-c3ccc(F)cc3)c2c1` the AC50 was > 42 µM (inactive). In the case of `CCn1cc(C(=O)N(C)c2ccc(OC)cc2OC)c2cc(OC)c(OC)cc2c1=O`, the AC50 is reported as > 42 µM (inactive). `O=C(COC(=O)c1ccc([N+](=O)[O-])o1)Nc1ncc(Cl)cc1Cl` was tested, and the AC50 was 9.48 µM. For `Cc1ccc(-c2nnc(SCC#N)n2N)cc1`, the AC50 was > 42 µM (inactive). In the case of `COc1ccc(CN(CC(=O)NCc2ccco2)C(=O)CCC(=O)Nc2nccs2)cc1`, the AC50 is reported as > 42 µM (inactive). `Cc1ccc(-c2noc(C3CCCN(S(=O)(=O)c4ccc5ccccc5c4)C3)n2)o1` (stereo not drawn) was tested, and the AC50 was > 42 µM (inactive).
